Data: patent publication US20250353841A1 (BIOGEN MA INC., priority 2022, published 2025)

These compounds were tested on mutant Huntington (HTT) protein (assay: HTT Mutant HTRF iPSC assay (mHTT protein lowering)). Details: human iPSC derived from a HTT patient with a poly-Q49 mutation.
Type: cell-based

Row | Structure (SMILES) | IC50
1 | CCN1CC[C@H](N(C)c2nc3c(F)cc(-c4cc(C)c5nc(C)cn5n4)cc3o2)C[C@@H]1C (stereo in doubt) [Compound 486, rel-6-(2,8-dimethylimidazo[1,2-b]pyridazin-6-yl)-N-((2R,4R)-1-ethyl-2-methylpiperidin-4-yl)-4-fluoro-N-methylbenzo[d]oxazol-2-amine] | < 0.1 µM
2 | Cc1cn2nc(-c3cc(F)c4nc(NC(=O)C5CCNC56CC6)nn4c3)cc(C)c2n1 (centres unmarked) [Compound 323, N-(6-(2,8-dimethylimidazo[1,2-b]pyridazin-6-yl)-8-fluoro-[1,2,4]triazolo[1,5-a]pyridin-2-yl)-4-azaspiro[2.4]heptane-7-carboxamide] | 0.1 to 1 µM
3 | Cc1cn2nc(-c3cc(F)c4nn(C5CCN(C)CC5)cc4c3)cc2c(C)n1 [Compound 371, 2-(7-fluoro-2-(1-methylpiperidin-4-yl)-2H-indazol-5-yl)-4,6-dimethylpyrazolo[1,5-a]pyrazine] | 0.1 to 1 µM
4 | Cc1cn2nc(-c3cc(F)c4nc(NC(=O)C5CC56CCNC6)cn4c3)cc(C)c2n1 (racemic) [Compound 253, N-(6-(2,8-dimethylimidazo[1,2-b]pyridazin-6-yl)-8-fluoroimidazo[1,2-a]pyridin-2-yl)-5-azaspiro[2.4]heptane-1-carboxamide] | 0.1 to 1 µM
5 | Cc1nc2c(F)cc(-c3cc(F)c4nc(C5CCNCC5)cn4c3)cc2o1 [Compound 82, 4-fluoro-6-(8-fluoro-2-(piperidin-4-yl)imidazo[1,2-a]pyridin-6-yl)-2-methylbenzo[d]oxazole] | < 0.1 µM
6 | Cc1cn2nc(-c3cc(F)c4nc([C@H]5C[C@@]6(CN[C@H](C)C6)C5)cn4c3)cc(C)c2n1 (single isomer, unassigned) [Compound 176, 6-(8-fluoro-2-((2S*,4r,7S*)-7-methyl-6-azaspiro[3.4]octan-2-yl)imidazo[1,2-a]pyridin-6-yl)-2,8-dimethylimidazo[1,2-b]pyridazine] | < 0.1 µM
7 | Cc1cn2nc(-c3cc(F)c4nc(NC(=O)C5CCN(C)CC5)cn4c3)cc(C)c2n1 [Compound 269, N-(6-(2,8-dimethylimidazo[1,2-b]pyridazin-6-yl)-8-fluoroimidazo[1,2-a]pyridin-2-yl)-1-methylpiperidine-4-carboxamide] | < 0.1 µM
8 | CCc1cc(-c2cc(F)c3nn(C4CCN(C)CC4)cc3c2)nn2cc(C)nc12 [Compound 357, 8-ethyl-6-(7-fluoro-2-(1-methylpiperidin-4-yl)-2H-indazol-5-yl)-2-methylimidazo[1,2-b]pyridazine] | 0.1 to 1 µM
9 | Cc1cn2nc(-c3cc(F)c4nc([C@H]5[C@@H]6CN(C)C[C@@H]65)cn4c3)cc(C)c2n1 [Compound 185, 6-[8-fluoro-2-[(1S,5R)-3-methyl-3-azabicyclo[3.1.0]hexan-6-yl]imidazo[1,2-a]pyridin-6-yl]-2,8-dimethyl-imidazo[1,2-b]pyridazine] | < 0.1 µM
10 | CCOc1nccc2oc(-c3cc(F)c4nc(C5CCNCC5)cn4c3)cc12 [Compound 41, 4-ethoxy-2-(8-fluoro-2-(piperidin-4-yl)imidazo[1,2-a]pyridin-6-yl)furo[3,2-c]pyridine] | 1 to 9 µM
11 | Cc1cn2cc(-c3cc(F)c4nc(C5CCNCC5)cn4c3)cc(C)c2n1 [Compound 95, 8-fluoro-2′,8′-dimethyl-2-(piperidin-4-yl)-6,6′-biimidazo[1,2-a]pyridine] | 0.1 to 1 µM
12 | CCN1CCC(c2nc3c(F)cc(-c4cc(C)c5nc(C)cn5n4)cn3n2)CC1 [Compound 435, 6-(2,8-dimethylimidazo[1,2-b]pyridazin-6-yl)-2-(1-ethylpiperidin-4-yl)-8-fluoro-[1,2,4]triazolo[1,5-a]pyridine] | 0.1 to 1 µM
13 | COCCN1CCC(c2cn3cc(-c4cc5c(C)nc(C)cn5n4)cc(F)c3n2)CC1 [Compound 221, 2-(8-fluoro-2-(1-(2-methoxyethyl)piperidin-4-yl)imidazo[1,2-a]pyridin-6-yl)-4,6-dimethylpyrazolo[1,5-a]pyrazine] | < 0.1 µM
14 | Cn1cc2cc(-c3cc(F)c4nc(C56CCNC(C5)C6)cn4c3)cc(F)c2n1 [Compound 75] | 1 to 9 µM
15 | CCN1CCC(N(C)c2nc3cc(-c4cc(C)c5nc(C)cn5n4)cc(F)c3o2)CC1C [Compound 533, rel-5-(2,8-dimethylimidazo[1,2-b]pyridazin-6-yl)-N-((2S,4S)-1-ethyl-2-methylpiperidin-4-yl)-7-fluoro-N-methylbenzo[d]oxazol-2-amine] | 1 to 9 µM
16 | COC1CC1N1CCC(c2cn3cc(-c4cc(C)c5nc(C)cn5n4)cc(F)c3n2)CC1 (centres unmarked) [Compound 205, 6-(8-fluoro-2-(1-(2-methoxycyclopropyl)piperidin-4-yl)imidazo[1,2-a]pyridin-6-yl)-2,8-dimethylimidazo[1,2-b]pyridazine] | 0.1 to 1 µM
17 | Cc1cn2nc(-c3cc(F)c4nc(C5CCNCC5)cn4c3)c(C)cc2n1 [Compound 101, 6-(8-fluoro-2-(piperidin-4-yl)imidazo[1,2-a]pyridin-6-yl)-2,7-dimethylimidazo[1,2-b]pyridazine] | 1 to 9 µM
18 | CCc1c[nH]c2ncc(-c3cc(F)c4nc(C5CCNCC5)cn4c3)cc12 [Compound 40, 6-(3-ethyl-1H-pyrrolo[2,3-b]pyridin-5-yl)-8-fluoro-2-(piperidin-4-yl)imidazo[1,2-a]pyridine] | 1 to 9 µM
19 | Cc1cc(-c2cc(F)c3nc(C4CCN(C5CC5)CC4)cn3c2)nc2cn(C)nc12 [Compound 171, 5-(2-(1-cyclopropylpiperidin-4-yl)-8-fluoroimidazo[1,2-a]pyridin-6-yl)-2,7-dimethyl-2H-pyrazolo[4,3-b]pyridine] | < 0.1 µM

Row | Structure (SMILES) | IC50
20 | Cc1cn2nc(-c3cc(F)c4nc(N5CCC(CN(C)CC6CC6)C5)oc4c3)cc(C)c2n1 (centres unmarked) [Compound 489, 1-cyclopropyl-N-((1-(6-(2,8-dimethylimidazo[1,2-b]pyridazin-6-yl)-4-fluorobenzo[d]oxazol-2-yl)pyrrolidin-3-yl)methyl)-N-methylmethanamine] | < 0.1 µM
21 | Cc1cn2nc(-c3cc(F)c4nc(C5CCN(Cc6ncccn6)CC5)nn4c3)cc(C)c2n1 [Compound 441, 6-(2,8-dimethylimidazo[1,2-b]pyridazin-6-yl)-8-fluoro-2-(1-(pyrimidin-2-ylmethyl)piperidin-4-yl)-[1,2,4]triazolo[1,5-a]pyridine] | 0.1 to 1 µM
22 | COCCN1CCC(c2nc3cc(-c4cc(C)c5nc(C)cn5n4)cc(F)c3[nH]2)CC1 [Compound 417, 6-(7-fluoro-2-(1-(2-methoxyethyl)piperidin-4-yl)-1H-benzo[d]imidazol-5-yl)-2,8-dimethylimidazo[1,2-b]pyridazine] | 0.1 to 1 µM
23 | Cn1cc2cc(-c3cc(F)c4nc(C56CC(N)(CO5)C6)cn4c3)cc(F)c2n1 [Compound 68] | 1 to 9 µM
24 | Cc1cn2nc(-c3cc(F)c4[nH]c(C5CC6(CCNCC6)C5)nc4c3)cc(C)c2n1 [Compound 421, 6-(7-fluoro-2-(7-azaspiro[3.5]nonan-2-yl)-1H-benzo[d]imidazol-5-yl)-2,8-dimethylimidazo[1,2-b]pyridazine] | 0.1 to 1 µM
25 | Cc1cc(-c2cc(F)c3nc(NC(=O)C4CN(C(C)C)C4)cn3c2)nc2cn(C)nc12 [Compound 292, N-(6-(2,7-dimethyl-2H-pyrazolo[4,3-b]pyridin-5-yl)-8-fluoroimidazo[1,2-a]pyridin-2-yl)-1-isopropylazetidine-3-carboxamide] | < 0.1 µM
26 | COc1cc(-c2cc(F)c3nc(C4CCNCC4)cn3c2)cn2cc(C)nc12 [Compound 89, 8-fluoro-8′-methoxy-2′-methyl-2-(piperidin-4-yl)-6,6′-biimidazo[1,2-a]pyridine] | 0.1 to 1 µM
27 | COCCN1CCC(Nc2nc3c(F)cc(-c4cc(C)c5nc(C)cn5n4)cc3o2)CC1 [Compound 480, 6-(2,8-dimethylimidazo[1,2-b]pyridazin-6-yl)-4-fluoro-N-(1-(2-methoxyethyl)piperidin-4-yl)benzo[d]oxazol-2-amine] | < 0.1 µM
28 | Cc1cn2nc(-c3cc(F)c4nc(NC(=O)C56CNC(C5)C6)nn4c3)cc(C)c2n1 [Compound 320, N-(6-(2,8-dimethylimidazo[1,2-b]pyridazin-6-yl)-8-fluoro-[1,2,4]triazolo[1,5-a]pyridin-2-yl)-2-azabicyclo[2.1.1]hexane-4-carboxamide] | 1 to 9 µM
29 | Cc1cn2nc(-c3ccc4nc(C5CCNCC5)cn4c3)cc(C)c2n1 [Compound 551, 2,8-dimethyl-6-[2-(4-piperidyl)imidazo[1,2-a]pyridin-6-yl]imidazo[1,2-b]pyridazine] | < 0.1 µM
30 | Cc1cn2cc(-c3cc(F)c4nc(CC5CCCNC5)cn4c3)cc(F)c2n1 (centres unmarked) [Compound 15, 8,8′-difluoro-2-methyl-2′-(piperidin-3-ylmethyl)-6,6′-biimidazo[1,2-a]pyridine] | 0.1 to 1 µM
31 | Cc1nc2c(C)cc(-c3cc(F)c4nc(C5CCN(C)CC5)cn4c3)nn2n1 [Compound 224] | < 0.1 µM
32 | Cc1cn2nc(-c3cc(F)c4nc(C56CNC(C5)C6)cn4c3)cc(C)c2n1 [Compound 159] | 0.1 to 1 µM
33 | Cc1cn2nc(-c3cc(F)c4nc(NC(=O)C5CCCN(C)C5)cn4c3)cc(C)c2n1 (single isomer, unassigned) [Compound 277] | < 0.1 µM
34 | Cc1cn2cc(-c3cc(F)c4nc(C5CCNCC5)oc4c3)cc(C)c2n1 [Compound 155, 6-(2,8-dimethylimidazo[1,2-a]pyridin-6-yl)-4-fluoro-2-(piperidin-4-yl)benzo[d]oxazole] | 1 to 9 µM
35 | Cc1nc2c(C)cc(-c3cc(F)c4nn(C5CCNCC5)nc4c3)nn2n1 [Compound 390, 6-(7-fluoro-2-(piperidin-4-yl)-2H-benzo[d][1,2,3]triazol-5-yl)-2,8-dimethyl-[1,2,4]triazolo[1,5-b]pyridazine] | 0.1 to 1 µM
36 | Cc1cc(-c2cc(F)c3[nH]c(C4CCNCC4)nc3c2)cc2cn(C)nc12 [Compound 142, 5-(7-fluoro-2-(piperidin-4-yl)-1H-benzo[d]imidazol-5-yl)-2,7-dimethyl-2H-indazole] | 1 to 9 µM
37 | CCN1CCC(Nc2nc3c(F)cc(-c4cc(C)c5nc(C)cn5n4)cc3o2)CC1 [Compound 479, 6-(2,8-dimethylimidazo[1,2-b]pyridazin-6-yl)-N-(1-ethylpiperidin-4-yl)-4-fluorobenzo[d]oxazol-2-amine] | < 0.1 µM
38 | Cc1cn2nc(-c3cc(F)c4nc(C5CCC(C)(C)NC5)nn4c3)cc(C)c2n1 (centres unmarked) [Compound 445, 6-(2,8-dimethylimidazo[1,2-b]pyridazin-6-yl)-2-(6,6-dimethylpiperidin-3-yl)-8-fluoro-[1,2,4]triazolo[1,5-a]pyridine] | 0.1 to 1 µM
